Experimental data reported in US20240116985A1, “STAPLED PEPTIDES AND METHODS THEREOF” (priority 2020, published 2024).

Key:
[1] = molecular target: T1, beta-catenin/TCF4 engagement (Homo sapiens, UniProt P35222); assay: Nano-BRET target engagement assay (B-cat-Halo & TCF4-Luc in HEK293 cells); assay type: cell-based; details: read-out: NanoBRET Abs IC50
T1 construct: expressed in transfected cells; host or cells: HEK293
T1 sequence (P35222 1-781): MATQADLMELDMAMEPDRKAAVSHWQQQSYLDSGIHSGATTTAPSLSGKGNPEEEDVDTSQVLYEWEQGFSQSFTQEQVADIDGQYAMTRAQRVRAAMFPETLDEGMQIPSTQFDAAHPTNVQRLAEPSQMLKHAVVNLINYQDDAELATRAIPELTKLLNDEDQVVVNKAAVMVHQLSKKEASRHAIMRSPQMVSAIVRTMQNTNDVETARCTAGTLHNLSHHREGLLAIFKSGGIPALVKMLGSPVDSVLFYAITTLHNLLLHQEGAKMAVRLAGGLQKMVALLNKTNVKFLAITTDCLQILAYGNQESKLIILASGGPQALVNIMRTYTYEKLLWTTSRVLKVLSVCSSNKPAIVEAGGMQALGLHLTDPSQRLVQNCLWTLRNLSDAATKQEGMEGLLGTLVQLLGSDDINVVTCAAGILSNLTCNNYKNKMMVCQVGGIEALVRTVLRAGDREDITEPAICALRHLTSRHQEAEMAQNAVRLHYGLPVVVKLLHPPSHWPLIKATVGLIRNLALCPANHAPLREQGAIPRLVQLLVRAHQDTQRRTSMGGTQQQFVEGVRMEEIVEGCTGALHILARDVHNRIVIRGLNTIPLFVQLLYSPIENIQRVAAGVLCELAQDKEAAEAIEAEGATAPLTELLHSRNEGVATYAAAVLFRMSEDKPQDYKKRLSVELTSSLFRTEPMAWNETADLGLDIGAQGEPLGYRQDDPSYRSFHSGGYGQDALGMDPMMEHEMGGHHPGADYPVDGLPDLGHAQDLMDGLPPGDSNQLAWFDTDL

[2] = molecular target: T2, full-length beta-Catenin (Uniprot ID P35222) (Homo sapiens, UniProt P35222); assay: Fluorescence polarization IC50 (beta-catenin / 5FAM-TCF4 10-53 competition); assay type: binding; details: fluorescence polarization; read-out: beta-Catenin FP IC50
T2 construct: 10 nM full-length beta-Catenin (Uniprot ID P35222)
T2 sequence (P35222 1-781): T1 sequence (P35222 1-781)

Structure (SMILES)	IC50 [1]	IC50 [2]
CC(=O)N1CCC[C@]12CC=CCCCC1(CCCC=CCCCOC(=O)N3CC[C@@](C(=O)N[C@@H](Cc4ccsc4)C(=O)N[C@@H](Cc4csc5ccccc45)C(=O)N[C@@H](CCC(N)=O)C(N)=O)(C3)NC(=O)[C@H](CC(C)C)NC(=O)[C@H](Cc3ccccc3)NC(=O)[C@H](C)NC(=O)[C@H](C)NC(=O)[C@H](CCn3cc(-c4ccccc4C(=O)O)nn3)NC(=O)[C@H](CC(=O)O)NC1=O)NC(=O)[C@H](CC(C)(C)C)NC(=O)[C@H](CC(=O)O)NC2=O (stereo partly drawn) [I-2080, Ac-PL3-Asp-Npg-B5-Asp-[2COOHPh]TriAzDab-Ala-Ala-Phe-Leu-PyrS2-3Thi-BztA-Gln-NH2]	28800 nM	45 nM
CC(=O)N1CCC[C@]12CC=CCCCC1(CCCC=CCCCOC(=O)N3CC[C@@](C(=O)N[C@@H](Cc4ccsc4)C(=O)N[C@@H](Cc4csc5ccccc45)C(=O)N[C@@H](CCC(N)=O)C(N)=O)(C3)NC(=O)[C@H](CC(C)C)NC(=O)[C@H](Cc3ccccc3)NC(=O)[C@H](C)NC(=O)[C@H](C)NC(=O)[C@H](CCn3cc(-c4ccccc4C(=O)O)nn3)NC(=O)[C@H](CC(=O)O)NC1=O)NC(=O)[C@H](CC(C)(C)C)NC(=O)[C@H](CC(=O)O)NC2=O (stereo partly drawn) [I-2081, Ac-PL3-Asp-Npg-B5-Asp-[2COOHPh]TriAzDab-Ala-Ala-Phe-Leu-PyrS2-3Thi-BztA-Gln-NH2]	11600 nM	13 nM
CC(=O)N1CCC[C@]12CC=CCCCC1(CCCC=CCCCOC(=O)N3CC[C@@](C(=O)N[C@@H](Cc4ccsc4)C(=O)N[C@@H](Cc4csc5ccccc45)C(=O)N[C@@H](CCC(N)=O)C(N)=O)(C3)NC(=O)[C@H](CC(C)C)NC(=O)[C@H](Cc3ccccc3)NC(=O)[C@H](C)NC(=O)[C@H](C)NC(=O)[C@H](Cn3cc(CCC(=O)O)nn3)NC(=O)[C@H](CC(=O)O)NC1=O)NC(=O)[C@H](CC(C)(C)C)NC(=O)[C@H](CC(=O)O)NC2=O (stereo partly drawn) [I-2082, Ac-PL3-Asp-Npg-B5-Asp-[CH2CH2CO2H]TriAzDap-Ala-Ala-Phe-Leu-PyrS2-3Thi-BztA-Gln-NH2]	7700 nM	5 nM
CC(=O)N1CCC[C@]12CC=CCCCC1(CCCC=CCCCOC(=O)N3CC[C@@](C(=O)N[C@@H](Cc4ccsc4)C(=O)N[C@@H](Cc4csc5ccccc45)C(=O)N[C@@H](CCC(N)=O)C(N)=O)(C3)NC(=O)[C@H](CC(C)C)NC(=O)[C@H](Cc3ccccc3)NC(=O)[C@H](C)NC(=O)[C@H](C)NC(=O)[C@H](Cn3cc(-c4ccccc4C(=O)O)nn3)NC(=O)[C@H](CC(=O)O)NC1=O)NC(=O)[C@H](CC(C)(C)C)NC(=O)[C@H](CC(=O)O)NC2=O (stereo partly drawn) [I-2086, Ac-PL3-Asp-Npg-B5-Asp-[2COOHPh]TriAzDap-Ala-Ala-Phe-Leu-PyrS2-3Thi-BztA-Gln-NH2]	16400 nM	12 nM
CC(=O)N1CCC[C@]12CC=CCCCC1(CCCC=CCCCOC(=O)N3CC[C@@](C(=O)N[C@@H](Cc4ccsc4)C(=O)N[C@@H](Cc4csc5ccccc45)C(=O)N[C@@H](CCC(N)=O)C(N)=O)(C3)NC(=O)[C@H](CC(C)C)NC(=O)[C@H](Cc3ccccc3)NC(=O)[C@H](C)NC(=O)[C@H](C)NC(=O)[C@H](CNc3ccc(N)cc3C(=O)O)NC(=O)[C@H](CC(=O)O)NC1=O)NC(=O)[C@H](CC(C)(C)C)NC(=O)[C@H](CC(=O)O)NC2=O (stereo partly drawn) [I-2087, Ac-PL3-Asp-Npg-B5-Asp-[2COOH4NH2Ph]Dap-Ala-Ala-Phe-Leu-PyrS2-3Thi-BztA-Gln-NH2]	6500 nM	26 nM
CC(=O)N1CCC[C@]12CC=CCCCC1(CCCC=CCCCOC(=O)N3CC[C@@](C(=O)N[C@@H](Cc4ccsc4)C(=O)N[C@@H](Cc4csc5ccccc45)C(=O)N[C@H](C)C(N)=O)(C3)NC(=O)[C@H](Cc3ccccc3)NC(=O)[C@H](Cc3ccccc3)NC(=O)[C@H](C)NC(=O)[C@H](C)NC(=O)[C@H](Cc3cccc(C(=O)O)c3)NC(=O)[C@H](CC(=O)O)NC1=O)NC(=O)[C@H](CC(C)(C)C)NC(=O)[C@H](CC(=O)O)NC2=O (stereo partly drawn) [I-2094, Ac-PL3-Asp-Npg-B5-Asp-3COOHF-Ala-Ala-Phe-Phe-PyrS2-3Thi-BztA-dAla-NH2]	9700 nM	28 nM

Now those with a lower IC50 [1], led by results:

IC50 [1]	IC50 [2]	Structure (SMILES)
3700 nM	5 nM	CC(=O)N1CCC[C@]12CC=CCCCC1(CCCC=CCCCOC(=O)N3CC[C@@](C(=O)N[C@@H](Cc4ccsc4)C(=O)N[C@@H](Cc4csc5ccccc45)C(=O)N[C@@H](CCC(N)=O)C(N)=O)(C3)NC(=O)[C@H](CC(C)C)NC(=O)[C@H](Cc3ccccc3)NC(=O)[C@H](C)NC(=O)[C@H](C)NC(=O)[C@H](Cn3cc(CC(C)(C)C(=O)O)nn3)NC(=O)[C@H](CC(=O)O)NC1=O)NC(=O)[C@H](CC(C)(C)C)NC(=O)[C@H](CC(=O)O)NC2=O (stereo partly drawn) [I-2083, Ac-PL3-Asp-Npg-B5-Asp-[CH2CMe2CO2H]TriAzDap-Ala-Ala-Phe-Leu-PyrS2-3Thi-BztA-Gln-NH2]
6200 nM	5 nM	CC(=O)N1CCC[C@]12CC=CCCCC1(CCCC=CCCCOC(=O)N3CC[C@@](C(=O)N[C@@H](Cc4ccsc4)C(=O)N[C@@H](Cc4csc5ccccc45)C(=O)N[C@@H](CCC(N)=O)C(N)=O)(C3)NC(=O)[C@H](CC(C)C)NC(=O)[C@H](Cc3ccccc3)NC(=O)[C@H](C)NC(=O)[C@H](C)NC(=O)[C@H](Cn3cc(C(C)(C)C(=O)O)nn3)NC(=O)[C@H](CC(=O)O)NC1=O)NC(=O)[C@H](CC(C)(C)C)NC(=O)[C@H](CC(=O)O)NC2=O (stereo partly drawn) [I-2085, Ac-PL3-Asp-Npg-B5-Asp-[CMe2CO2H]TriAzDap-Ala-Ala-Phe-Leu-PyrS2-3Thi-BztA-Gln-NH2]
4400 nM	10 nM	CC(=O)N1CCC[C@]12CC=CCCCC1(CCCC=CCCCOC(=O)N3CC[C@@](C(=O)N[C@@H](Cc4ccsc4)C(=O)N[C@@H](Cc4csc5ccccc45)C(=O)N[C@H](CCC(N)=O)C(N)=O)(C3)NC(=O)[C@H](CC(C)C)NC(=O)[C@H](Cc3ccccc3)NC(=O)[C@H](C)NC(=O)[C@H](C)NC(=O)[C@H](Cc3cccc(C(=O)O)c3)NC(=O)[C@H](CC(=O)O)NC1=O)NC(=O)[C@H](CC(C)(C)C)NC(=O)[C@H](CC(=O)O)NC2=O (stereo partly drawn) [I-2088, Ac-PL3-Asp-Npg-B5-Asp-3COOHF-Ala-Ala-Phe-Leu-PyrS2-3Thi-BztA-dGln-NH2]
5900 nM	11 nM	CC(=O)N1CCC[C@]12CC=CCCCC1(CCCC=CCCCOC(=O)N3CC[C@@](C(=O)N[C@@H](Cc4ccsc4)C(=O)N[C@@H](Cc4csc5ccccc45)C(=O)N[C@H](C)C(N)=O)(C3)NC(=O)[C@H](CC(C)C)NC(=O)[C@H](Cc3ccccc3)NC(=O)[C@H](C)NC(=O)[C@H](C)NC(=O)[C@H](Cc3cccc(C(=O)O)c3)NC(=O)[C@H](CC(=O)O)NC1=O)NC(=O)[C@H](CC(C)(C)C)NC(=O)[C@H](CC(=O)O)NC2=O (stereo partly drawn) [I-2090, Ac-PL3-Asp-Npg-B5-Asp-3COOHF-Ala-Ala-Phe-Leu-PyrS2-3Thi-BztA-dAla-NH2]
6200 nM	49 nM	CC(=O)N1CCC[C@]12CC=CCCCC1(CCCC=CCCCOC(=O)N3CC[C@@](C(=O)N[C@@H](Cc4ccccc4C(F)(F)F)C(=O)N[C@@H](Cc4csc5ccccc45)C(=O)N[C@H](C)C(N)=O)(C3)NC(=O)[C@H](CC(C)C)NC(=O)[C@H](Cc3ccccc3)NC(=O)[C@H](C)NC(=O)[C@H](C)NC(=O)[C@H](Cc3cccc(C(=O)O)c3)NC(=O)[C@H](CC(=O)O)NC1=O)NC(=O)[C@H](CC(C)(C)C)NC(=O)[C@H](CC(=O)O)NC2=O (stereo partly drawn) [I-2091, Ac-PL3-Asp-Npg-B5-Asp-3COOHF-Ala-Ala-Phe-Leu-PyrS2-2F3MeF-BztA-dAla-NH2]
4400 nM	15 nM	CC(=O)N1CCC[C@]12CC=CCCCC1(CCCC=CCCCOC(=O)N3CC[C@@](C(=O)N[C@@H](Cc4ccsc4)C(=O)N[C@@H](Cc4csc5ccccc45)C(=O)N[C@H](CCC(N)=O)C(N)=O)(C3)NC(=O)[C@H](Cc3ccccc3)NC(=O)[C@H](Cc3ccccc3)NC(=O)[C@H](C)NC(=O)[C@H](C)NC(=O)[C@H](Cc3cccc(C(=O)O)c3)NC(=O)[C@H](CC(=O)O)NC1=O)NC(=O)[C@H](CC(C)(C)C)NC(=O)[C@H](CC(=O)O)NC2=O (stereo partly drawn) [I-2092, Ac-PL3-Asp-Npg-B5-Asp-3COOHF-Ala-Ala-Phe-Phe-PyrS2-3Thi-BztA-dGln-NH2]
5000 nM	43 nM	CC(=O)N1CCC[C@]12CC=CCCCC1(CCCC=CCCCOC(=O)N3CC[C@@](C(=O)N[C@@H](Cc4ccccc4C(F)(F)F)C(=O)N[C@@H](Cc4csc5ccccc45)C(=O)N[C@H](CCC(N)=O)C(N)=O)(C3)NC(=O)[C@H](Cc3ccccc3)NC(=O)[C@H](Cc3ccccc3)NC(=O)[C@H](C)NC(=O)[C@H](C)NC(=O)[C@H](Cc3cccc(C(=O)O)c3)NC(=O)[C@H](CC(=O)O)NC1=O)NC(=O)[C@H](CC(C)(C)C)NC(=O)[C@H](CC(=O)O)NC2=O (stereo partly drawn) [I-2093, Ac-PL3-Asp-Npg-B5-Asp-3COOHF-Ala-Ala-Phe-Phe-PyrS2-2F3MeF-BztA-dGln-NH2]
